Experimental data: ChEMBL document CHEMBL1201862, “PubChem BioAssay data set” (2004)
Values joined by “and” are separate entries in the source; they are usually repeats but may differ in a detail not shown here. Identical values can stand only once.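 Five concentrations, 48 hours, 96-well plates. GI50 is the concentration that inhibits growth by half.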 Active and inactive are the calls of the source. Cut-off read from the data, not from the text of the source: active = GI50 up to about 1.1 µM and inactive = higher.

Assays:
Assay in all cases: DTP human tumour cell line panel, 48 h
HCT-116 = test system: HCT-116
SK-MEL-28 = test system: SK-MEL-28
SNB-19 = test system: SNB-19
U-251 = test system: U-251
HT-29 = test system: HT-29
T47D = test system: T47D
TK-10 = test system: TK-10
MDA-MB-231 = test system: MDA-MB-231
RXF 393 = test system: RXF 393
SNB-75 = test system: SNB-75
MDA-N = test system: MDA-N
OVCAR-5 = test system: OVCAR-5
Hs-578T = test system: Hs-578T
OVCAR-8 = test system: OVCAR-8
SK-MEL-5 = test system: SK-MEL-5
UACC-62 = test system: UACC-62
IGROV-1 = test system: IGROV-1
SK-MEL-2 = test system: SK-MEL-2
HOP-62 = test system: HOP-62
OVCAR-4 = test system: OVCAR-4

Row | Compound | GI50 (HCT-116) | GI50 (SK-MEL-28) | GI50 (SNB-19) | GI50 (U-251) | GI50 (HT-29) | GI50 (T47D) | GI50 (TK-10) | GI50 (MDA-MB-231) | GI50 (RXF 393) | GI50 (SNB-75) | GI50 (MDA-N) | GI50 (OVCAR-5) | GI50 (Hs-578T) | GI50 (OVCAR-8) | GI50 (SK-MEL-5) | GI50 (UACC-62) | GI50 (IGROV-1) | GI50 (SK-MEL-2) | GI50 (HOP-62) | GI50 (OVCAR-4)
1 | N#CC1(C#N)C2CCCCC23OC(=N)C1(C#N)C(c1ccco1)O3 (stereo not given) | 17.4 µM (inactive) | 15.6 µM (inactive) | 31.6 µM (inactive) | > 10 µM (inactive) | 26.7 µM (inactive) | 17.6 µM (inactive) | 17.1 µM (inactive) | 16.7 µM (inactive) | 21.7 µM (inactive) | 55.5 µM (inactive) | 17.4 µM (inactive) | 24.9 µM (inactive) | 30.8 µM (inactive) | 23.2 µM (inactive) | 15.5 µM (inactive) | 16.6 µM (inactive) | 18.3 µM (inactive) | 17.6 µM (inactive) | – | –
2 | COC(=O)CCNC(=O)OCc1ccccc1 | > 100 µM (inactive) | > 100 µM (inactive) | > 100 µM (inactive) | > 100 µM (inactive) | > 100 µM (inactive) | > 100 µM (inactive) | > 100 µM (inactive) | > 100 µM (inactive) | – | > 100 µM (inactive) | > 100 µM (inactive) | > 100 µM (inactive) | > 100 µM (inactive) | > 100 µM (inactive) | > 100 µM (inactive) | > 100 µM (inactive) | > 100 µM (inactive) | > 100 µM (inactive) | > 100 µM (inactive) | –
3 | COc1nc(-c2c[nH]c3ccccc23)cnc1N | 21.7 µM (inactive) | 25.5 µM (inactive) | 66.4 µM (inactive) | 31 µM (inactive) | 19.3 µM (inactive) | 1.56 µM (inactive) | > 100 µM (inactive) | 18.1 µM (inactive) | – | – | 18.4 µM (inactive) | 14.4 µM (inactive) | 17.7 µM (inactive) | 31.5 µM (inactive) | 37.9 µM (inactive) | 16.4 µM (inactive) | 19.6 µM (inactive) | 25 µM (inactive) | 48.9 µM (inactive) | 29.6 µM (inactive)
4 | Cc1ccc(S(=O)(=O)n2cc(/C=C/C#N)c(-c3cn(S(=O)(=O)c4ccc(C)cc4)cc3-c3cn(S(=O)(=O)c4ccc(C)cc4)cc3/C=C/C#N)c2)cc1 | > 100 µM (inactive) | – | > 100 µM (inactive) | – | > 100 µM (inactive) | > 100 µM (inactive) | 40.4 µM (inactive) | 18.5 µM (inactive) | – | > 100 µM (inactive) | > 100 µM (inactive) | > 100 µM (inactive) | 90.2 µM (inactive) | > 100 µM (inactive) | > 100 µM (inactive) | > 100 µM (inactive) | > 100 µM (inactive) | > 100 µM (inactive) | > 100 µM (inactive) | > 100 µM (inactive)
5 | CC(C)n1c2c(c3ccccc3c1=O)C(=O)c1ccccc1-2 | > 100 µM (inactive) | > 100 µM (inactive) | > 100 µM (inactive) | > 100 µM (inactive) | > 100 µM (inactive) | > 100 µM (inactive) | > 100 µM (inactive) | > 100 µM (inactive) | – | > 100 µM (inactive) | > 100 µM (inactive) | > 100 µM (inactive) | > 100 µM (inactive) | > 100 µM (inactive) | > 100 µM (inactive) | > 100 µM (inactive) | > 100 µM (inactive) | > 100 µM (inactive) | > 100 µM (inactive) | 50.5 µM (inactive)
6 | CC(C)(C)OC(=O)N1C(=O)OC[C@@H]2C=C[C@@H]21 | > 100 µM (inactive) | > 100 µM (inactive) | > 100 µM (inactive) | > 100 µM (inactive) | > 100 µM (inactive) | > 100 µM (inactive) | > 100 µM (inactive) | > 100 µM (inactive) | > 100 µM (inactive) | – | > 100 µM (inactive) | > 100 µM (inactive) | > 100 µM (inactive) | > 100 µM (inactive) | > 100 µM (inactive) | > 100 µM (inactive) | > 100 µM (inactive) | > 100 µM (inactive) | > 100 µM (inactive) | > 100 µM (inactive)
7 | C=CCN1C(=O)C=C(c2ccccc2)n2ncc3cccc1c32 | > 100 µM (inactive) | > 100 µM (inactive) | > 100 µM (inactive) | > 100 µM (inactive) | 69.2 µM (inactive) | 18.2 µM (inactive) | > 100 µM (inactive) | > 100 µM (inactive) | – | – | > 100 µM (inactive) | > 100 µM (inactive) | > 100 µM (inactive) | > 100 µM (inactive) | 81.5 µM (inactive) | > 100 µM (inactive) | > 100 µM (inactive) | > 100 µM (inactive) | 80.4 µM (inactive) | –
8 | O=C(CN1CCNCCN(CC(=O)N2CCCCC2)CCNCC1)N1CCCCC1 | 42.5 µM (inactive) | > 100 µM (inactive) | > 100 µM (inactive) | 93.1 µM (inactive) | 18.2 µM (inactive) | > 100 µM (inactive) | > 100 µM (inactive) | > 100 µM (inactive) | – | > 100 µM (inactive) | > 100 µM (inactive) | > 100 µM (inactive) | > 100 µM (inactive) | > 100 µM (inactive) | 71.8 µM (inactive) | > 100 µM (inactive) | 33.5 µM (inactive) | > 100 µM (inactive) | > 100 µM (inactive) | > 100 µM (inactive)
9 | O=C1/C(=C/c2ccncc2)C(n2cccc2)c2c(Br)sc(Br)c21 (stereo not given) | 2.79 µM (inactive) | 2.65 µM (inactive) | 15.5 µM (inactive) | 2.11 µM (inactive) | 4.82 µM (inactive) | 3.73 µM (inactive) | 4.2 µM (inactive) | 2.25 µM (inactive) | 1.88 µM (inactive) | 3.53 µM (inactive) | 2.52 µM (inactive) | 14.3 µM (inactive) | 2.77 µM (inactive) | 2.28 µM (inactive) | 13.7 µM (inactive) | 2.94 µM (inactive) | 1.96 µM (inactive) | 2.46 µM (inactive) | 3.03 µM (inactive) | –
10 | CC1Oc2c(c(=O)oc3ccccc23)[C@@]1(C)CC1C[C@H](C)C(=O)O1 (stereo not given in full) | 15.1 µM (inactive) | 18.7 µM (inactive) | 62.4 µM (inactive) | 35.1 µM (inactive) | 27.1 µM (inactive) | 37.4 µM (inactive) | > 100 µM (inactive) | 31.1 µM (inactive) | – | 24.7 µM (inactive) | 19.9 µM (inactive) | 83.8 µM (inactive) | 30.6 µM (inactive) | 30.5 µM (inactive) | 38.8 µM (inactive) | 19.1 µM (inactive) | 33.8 µM (inactive) | 25.9 µM (inactive) | 47.6 µM (inactive) | –
11 | CCN(CC)CCOc1ccc(N2C(=O)c3cc(OC)c(OC)cc3C2=O)cc1 | > 100 µM (inactive) | > 100 µM (inactive) | > 100 µM (inactive) | > 100 µM (inactive) | > 100 µM (inactive) | > 100 µM (inactive) | > 100 µM (inactive) | > 100 µM (inactive) | > 100 µM (inactive) | – | > 100 µM (inactive) | > 100 µM (inactive) | > 100 µM (inactive) | > 100 µM (inactive) | > 100 µM (inactive) | > 100 µM (inactive) | > 100 µM (inactive) | > 100 µM (inactive) | > 100 µM (inactive) | > 100 µM (inactive)
12 | Clc1ccc(OCc2nn3c(CCc4nnc5sc(COc6ccc(Cl)cc6)nn45)nnc3s2)cc1 | 21.9 µM (inactive) | 33.9 µM (inactive) | – | 20.7 µM (inactive) | 27.8 µM (inactive) | 22.4 µM (inactive) | 26.4 µM (inactive) | 19.8 µM (inactive) | 23.8 µM (inactive) | – | 30.3 µM (inactive) | 53.7 µM (inactive) | 3.94 µM (inactive) | 14.5 µM (inactive) | 11.1 µM (inactive) | – | 16.8 µM (inactive) | 25.7 µM (inactive) | 23.7 µM (inactive) | 14.7 µM (inactive)
13 | [N-]=[N+]=CC(=O)OCC1NC(=O)C(COC(=O)C=[N+]=[N-])NC1=O (stereo not given) | > 100 µM (inactive) | > 100 µM (inactive) | > 100 µM (inactive) and 72.1 µM (inactive) | > 100 µM (inactive) | > 100 µM (inactive) | > 100 µM (inactive) | > 100 µM (inactive) | > 100 µM (inactive) | – | > 100 µM (inactive) | > 100 µM (inactive) | > 100 µM (inactive) | > 100 µM (inactive) | > 100 µM (inactive) | – | > 100 µM (inactive) | > 100 µM (inactive) | > 100 µM (inactive) | > 100 µM (inactive) | > 100 µM (inactive)
14 | Brc1ccc(-c2[nH]c3ccccc3c2/C=N\Nc2ccc(-c3nc4ccccc4[nH]3)cc2)cc1 | < 0.01 µM (active) | – | < 0.01 µM (active) | < 0.01 µM (active) | < 0.01 µM (active) | > 56.4 µM (inactive) | – | < 0.01 µM (active) | < 0.01 µM (active) | – | < 0.01 µM (active) | < 0.0448 µM (active) | < 0.01 µM (active) | < 0.01 µM (active) | < 0.01 µM (active) | < 0.01 µM (active) | < 0.01 µM (active) | < 0.0139 µM (active) | < 0.01 µM (active) | –
15 | CNC(=O)CN(C)C(=O)CCC(=O)N(C)C | > 100 µM (inactive) | > 100 µM (inactive) | > 100 µM (inactive) | > 100 µM (inactive) | > 100 µM (inactive) | > 100 µM (inactive) | > 100 µM (inactive) | > 100 µM (inactive) | – | > 100 µM (inactive) | > 100 µM (inactive) | > 100 µM (inactive) | > 100 µM (inactive) | > 100 µM (inactive) | > 100 µM (inactive) | > 100 µM (inactive) | > 100 µM (inactive) | > 100 µM (inactive) | > 100 µM (inactive) | –
